Reference: ChEMBL document CHEMBL1201862, “PubChem BioAssay data set” (2004)
Active and inactive are the calls of the source.

Tests used:
Type in all cases: functional
[1] = target: Protein disulfide-isomerase (Homo sapiens, UniProt P07237); test: PDI inhibitors, insulin aggregation turbidity, dose response, biochemical, absorbance, cherry-picked samples (AID 602350)
[2] = target: T1, Apoptotic protease-activating factor 1 (Homo sapiens, UniProt O14727); test: SAR analysis of small molecule inhibitors of Apaf-1 in a Fluorescent assay.; conditions: read-out: IC50_Mean
T1 sequence (O14727 whole entry): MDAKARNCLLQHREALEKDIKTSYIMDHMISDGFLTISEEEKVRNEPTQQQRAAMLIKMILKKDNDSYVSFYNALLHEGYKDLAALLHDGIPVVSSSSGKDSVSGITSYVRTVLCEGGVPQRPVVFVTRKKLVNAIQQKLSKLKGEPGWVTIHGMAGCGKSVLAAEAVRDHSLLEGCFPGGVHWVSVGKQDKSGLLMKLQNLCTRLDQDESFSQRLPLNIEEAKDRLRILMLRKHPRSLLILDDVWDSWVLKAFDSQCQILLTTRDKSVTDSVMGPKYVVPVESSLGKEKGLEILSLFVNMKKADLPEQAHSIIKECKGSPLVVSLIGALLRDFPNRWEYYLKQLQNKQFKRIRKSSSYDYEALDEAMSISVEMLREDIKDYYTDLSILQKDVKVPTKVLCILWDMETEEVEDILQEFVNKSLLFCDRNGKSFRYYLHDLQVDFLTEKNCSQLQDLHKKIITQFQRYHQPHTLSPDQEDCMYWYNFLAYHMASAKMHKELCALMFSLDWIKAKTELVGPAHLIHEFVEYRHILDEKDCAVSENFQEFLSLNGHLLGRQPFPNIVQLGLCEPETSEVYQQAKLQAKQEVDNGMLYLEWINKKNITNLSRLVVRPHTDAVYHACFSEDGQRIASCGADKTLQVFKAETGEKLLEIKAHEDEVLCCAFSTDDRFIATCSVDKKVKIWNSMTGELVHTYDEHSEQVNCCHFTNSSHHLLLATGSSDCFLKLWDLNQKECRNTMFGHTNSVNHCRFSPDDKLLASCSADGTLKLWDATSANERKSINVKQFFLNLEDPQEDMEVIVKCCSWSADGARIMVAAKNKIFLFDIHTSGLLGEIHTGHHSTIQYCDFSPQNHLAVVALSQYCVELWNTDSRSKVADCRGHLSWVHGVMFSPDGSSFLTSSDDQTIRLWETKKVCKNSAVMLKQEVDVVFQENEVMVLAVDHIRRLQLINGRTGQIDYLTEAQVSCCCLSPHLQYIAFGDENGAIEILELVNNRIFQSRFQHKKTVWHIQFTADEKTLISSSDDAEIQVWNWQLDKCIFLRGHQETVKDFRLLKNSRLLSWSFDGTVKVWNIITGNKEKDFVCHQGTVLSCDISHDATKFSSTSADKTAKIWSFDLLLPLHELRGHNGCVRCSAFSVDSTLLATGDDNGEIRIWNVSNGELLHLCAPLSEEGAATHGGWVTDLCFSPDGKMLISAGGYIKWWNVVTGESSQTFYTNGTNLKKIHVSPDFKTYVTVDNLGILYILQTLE

[3] = target: ALK tyrosine kinase receptor (Homo sapiens, UniProt Q9UM73);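 note: ALK tested as one member of a kinase panel screen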
[4] = target: Cyclin-dependent kinase 19 (Homo sapiens, UniProt Q9BWU1); test: Navigating the Kinome. Panel member name: CDC2L6
[5] = target: Sphingosine 1-phosphate receptor 2 (Homo sapiens, UniProt O95136); test: Late-stage fluorescence-based dose-response cell-based counterscreen assay to identify agonists of the Sphingosine 1-Phosphate Receptor 3 (S1P3): Sphingosine 1-Phosphate Receptor 2 (S1P2) agonist assay.
[6] = target: T2, Sphingosine 1-phosphate receptor 4 (Homo sapiens, UniProt O95977); test: Late-stage fluorescence-based dose-response cell-based counterscreen assay to identify agonists of the Sphingosine 1-Phosphate Receptor 3 (S1P3): Sphingosine 1-Phosphate Receptor 4 (S1P4) agonist assay.
T2 sequence (O95977 whole entry): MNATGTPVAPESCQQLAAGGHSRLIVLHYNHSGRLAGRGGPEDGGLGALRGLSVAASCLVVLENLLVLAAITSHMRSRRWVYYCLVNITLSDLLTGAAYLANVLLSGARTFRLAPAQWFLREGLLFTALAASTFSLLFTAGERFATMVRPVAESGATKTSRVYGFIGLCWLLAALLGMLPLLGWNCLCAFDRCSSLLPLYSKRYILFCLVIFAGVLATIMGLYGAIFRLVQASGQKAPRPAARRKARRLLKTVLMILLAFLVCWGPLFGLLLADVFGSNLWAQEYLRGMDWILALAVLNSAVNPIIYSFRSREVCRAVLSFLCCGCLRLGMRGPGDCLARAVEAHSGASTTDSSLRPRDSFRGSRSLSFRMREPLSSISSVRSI

[7] = target: T3, Multidrug resistance protein CDR2 (Candida albicans (strain SC5314 / ATCC MYA-2876) (Yeast), UniProt P78595); test: CaCDR2 efflux pump inhibitors in yeast, dose response, S. cerevisiae AD1-8u, singleplex, Cherry Pick1 hits (AID 588604)
[8] = target: T4, Ubiquitin-conjugating enzyme E2 N (Homo sapiens, UniProt P61088);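 note: Dose-response confirmation in a TR-FRET assay detecting UBC13-driven polyubiquitin chain formation, inhibition measured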
T4 sequence (P61088 whole entry): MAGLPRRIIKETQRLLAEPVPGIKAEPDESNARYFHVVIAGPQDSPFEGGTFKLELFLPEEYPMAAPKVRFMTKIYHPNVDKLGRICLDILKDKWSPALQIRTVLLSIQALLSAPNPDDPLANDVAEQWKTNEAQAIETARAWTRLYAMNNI

[9] = target: T3, Multidrug resistance protein CDR2; test: CaCDR2 efflux pump inhibitors in yeast, dose response, S. cerevisiae AD1-8u, singleplex, Cherry Pick2 set (AID 623994); conditions: read-out: EC50_MICROM
[10] = target: Serine/threonine-protein kinase pim-1 (Homo sapiens, UniProt P11309)
[11] = target: Cyclin-dependent kinase 8 (Homo sapiens, UniProt P49336); test: Navigating the Kinome. Panel member name: CDK8
[12] = target: Serine/threonine-protein kinase Nek2 (Homo sapiens, UniProt P51955)
[13] = target: Receptor-type tyrosine-protein kinase FLT3 (Homo sapiens, UniProt P36888);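 note: FLT3 was tested as one member of a kinome-wide kinase panel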
[14] = target: Mitogen-activated protein kinase kinase kinase kinase 2 (Homo sapiens, UniProt Q12851);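 note: measured as one member of a kinome-wide kinase panel, with MAP4K2 as the panel entry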
[15] = target: Proto-oncogene tyrosine-protein kinase receptor Ret (Homo sapiens, UniProt P07949);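 note: measured within a kinome-wide profiling panel, RET as the panel member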
[16] = target: Aurora kinase A (Homo sapiens, UniProt O14965);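 note: value from the Navigating the Kinome kinase panel profiling, panel entry STK6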
[17] = target: Inhibitor of nuclear factor kappa-B kinase subunit epsilon (Homo sapiens, UniProt Q14164); test: Navigating the Kinome. Panel member name: IKBKE
[18] = target: Activin receptor type-1 (Homo sapiens, UniProt Q04771); test: Navigating the Kinome. Panel member name: ACVR1
[19] = target: Dual specificity tyrosine-phosphorylation-regulated kinase 1B (Homo sapiens, UniProt Q9Y463); test: Navigating the Kinome. Panel member name: DYRK1B
[20] = target: Hepatocyte growth factor receptor (Homo sapiens, UniProt P08581);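 note: kinase panel profiling across the kinome, with MET as the panel member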
[21] = target: Insulin-like growth factor 1 receptor (Homo sapiens, UniProt P08069); test: Navigating the Kinome. Panel member name: IGF1R
[22] = target: Macrophage colony-stimulating factor 1 receptor (Homo sapiens, UniProt P07333);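 note: value comes from the Navigating the Kinome screening panel, CSF1R member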
[23] = target: Focal adhesion kinase 1 (Homo sapiens, UniProt Q05397);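 note: measured as one member of a kinome panel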
[24] = target: Tyrosine-protein kinase receptor TYRO3 (Homo sapiens, UniProt Q06418);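 note: TYRO3 value obtained as one member of a kinome-wide profiling panel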
[25] = target: 5'-AMP-activated protein kinase catalytic subunit alpha-1 (Homo sapiens, UniProt Q13131)
[26] = target: Cyclin-dependent kinase 9 (Homo sapiens, UniProt P50750);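 note: value from the CDK9 entry of a kinome-spanning kinase panel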
[27] = target: Ribosomal protein S6 kinase alpha-3 (Homo sapiens, UniProt P51812);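 note: measured within a kinome-wide profiling panel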
[28] = target: Cyclin-dependent kinase 5 (Homo sapiens, UniProt Q00535);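 note: CDK5 measured as one member of a kinase profiling panel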
[29] = target: Tyrosine-protein kinase Fyn (Homo sapiens, UniProt P06241)
[30] = target: Glycogen synthase kinase-3 alpha (Homo sapiens, UniProt P49840);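 note: GSK3A result taken from a broad kinome-wide kinase panel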
[31] = target: Dual specificity mitogen-activated protein kinase kinase 2 (Homo sapiens, UniProt P36507); test: Navigating the Kinome. Panel member name: MAP2K2
[32] = target: Activated CDC42 kinase 1 (Homo sapiens, UniProt Q07912); test: Navigating the Kinome. Panel member name: ACK1
[33] = target: G protein-coupled receptor kinase 5 (Homo sapiens, UniProt P34947); test: Navigating the Kinome. Panel member name: GPRK5
[34] = target: Dual specificity tyrosine-phosphorylation-regulated kinase 1A (Homo sapiens, UniProt Q13627);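 note: measured against DYRK1A as one member of a broad kinome profiling panel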
[35] = target: LIM domain kinase 1 (Homo sapiens, UniProt P53667); test: Navigating the Kinome. Panel member name: LIMK1
[36] = target: BDNF/NT-3 growth factors receptor (Homo sapiens, UniProt Q16620);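 note: NTRK2 measured as one member of a broad kinome-wide kinase profiling panel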
[37] = target: Casein kinase I isoform alpha (Homo sapiens, UniProt P48729)
[38] = target: Dual specificity protein kinase CLK4 (Homo sapiens, UniProt Q9HAZ1)
[39] = target: Leukocyte tyrosine kinase receptor (Homo sapiens, UniProt P29376); test: Navigating the Kinome. Panel member name: LTK
[40] = target: Protein kinase C theta type (Homo sapiens, UniProt Q04759); test: Navigating the Kinome. Panel member name: PRKCQ
[41] = target: Tyrosine-protein kinase JAK2 (Homo sapiens, UniProt O60674);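 note: JAK2 tested as one member of a kinase panel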
[42] = target: Cyclin-dependent kinase 7 (Homo sapiens, UniProt P50613);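 note: value comes from a kinome-wide kinase profiling panel in which CDK7 is one member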
[43] = target: Tyrosine-protein kinase Lck (Homo sapiens, UniProt P06239);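 note: lck was assayed as one member of a kinase panel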
[44] = target: Rho-associated protein kinase 1 (Homo sapiens, UniProt Q13464);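 note: measured within a broad kinome-wide panel profiling many kinases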
[45] = target: Vascular endothelial growth factor receptor 2 (Homo sapiens, UniProt P35968)
[46] = target: Aurora kinase B (Homo sapiens, UniProt Q96GD4)
[47] = target: Mitogen-activated protein kinase 8 (Homo sapiens, UniProt P45983);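 note: value comes from one member of a kinome-wide kinase profiling panel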
[48] = target: Platelet-derived growth factor receptor beta (Homo sapiens, UniProt P09619);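 note: value comes from a kinome panel, with PDGFRB tested as one panel member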
[49] = target: Serine/threonine-protein kinase TAO1 (Homo sapiens, UniProt Q7L7X3)
[50] = target: Dual specificity mitogen-activated protein kinase kinase 1 (Homo sapiens, UniProt Q02750); test: Navigating the Kinome. Panel member name: MAP2K1
[51] = target: cAMP-dependent protein kinase catalytic subunit PRKX (Homo sapiens, UniProt P51817)
[52] = target: Leucine-rich repeat serine/threonine-protein kinase 2 (Homo sapiens, UniProt Q5S007);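 note: value from a broad kinome-wide panel profiling study in which LRRK2 was one of the kinases tested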
[53] = target: Death-associated protein kinase 3 (Homo sapiens, UniProt O43293);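 note: measured as one member of a kinome-wide profiling panel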
[54] = target: Serine/threonine-protein kinase PAK 4 (Homo sapiens, UniProt O96013);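 note: value obtained within a kinome profiling panel in which PAK4 was one of the panel members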
[55] = target: Tyrosine-protein kinase JAK3 (Homo sapiens, UniProt P52333)
[56] = target: Serine/threonine-protein kinase Chk1 (Homo sapiens, UniProt O14757);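 note: measured as one member of a kinome-wide kinase profiling panel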

T3 sequence (P78595 whole entry): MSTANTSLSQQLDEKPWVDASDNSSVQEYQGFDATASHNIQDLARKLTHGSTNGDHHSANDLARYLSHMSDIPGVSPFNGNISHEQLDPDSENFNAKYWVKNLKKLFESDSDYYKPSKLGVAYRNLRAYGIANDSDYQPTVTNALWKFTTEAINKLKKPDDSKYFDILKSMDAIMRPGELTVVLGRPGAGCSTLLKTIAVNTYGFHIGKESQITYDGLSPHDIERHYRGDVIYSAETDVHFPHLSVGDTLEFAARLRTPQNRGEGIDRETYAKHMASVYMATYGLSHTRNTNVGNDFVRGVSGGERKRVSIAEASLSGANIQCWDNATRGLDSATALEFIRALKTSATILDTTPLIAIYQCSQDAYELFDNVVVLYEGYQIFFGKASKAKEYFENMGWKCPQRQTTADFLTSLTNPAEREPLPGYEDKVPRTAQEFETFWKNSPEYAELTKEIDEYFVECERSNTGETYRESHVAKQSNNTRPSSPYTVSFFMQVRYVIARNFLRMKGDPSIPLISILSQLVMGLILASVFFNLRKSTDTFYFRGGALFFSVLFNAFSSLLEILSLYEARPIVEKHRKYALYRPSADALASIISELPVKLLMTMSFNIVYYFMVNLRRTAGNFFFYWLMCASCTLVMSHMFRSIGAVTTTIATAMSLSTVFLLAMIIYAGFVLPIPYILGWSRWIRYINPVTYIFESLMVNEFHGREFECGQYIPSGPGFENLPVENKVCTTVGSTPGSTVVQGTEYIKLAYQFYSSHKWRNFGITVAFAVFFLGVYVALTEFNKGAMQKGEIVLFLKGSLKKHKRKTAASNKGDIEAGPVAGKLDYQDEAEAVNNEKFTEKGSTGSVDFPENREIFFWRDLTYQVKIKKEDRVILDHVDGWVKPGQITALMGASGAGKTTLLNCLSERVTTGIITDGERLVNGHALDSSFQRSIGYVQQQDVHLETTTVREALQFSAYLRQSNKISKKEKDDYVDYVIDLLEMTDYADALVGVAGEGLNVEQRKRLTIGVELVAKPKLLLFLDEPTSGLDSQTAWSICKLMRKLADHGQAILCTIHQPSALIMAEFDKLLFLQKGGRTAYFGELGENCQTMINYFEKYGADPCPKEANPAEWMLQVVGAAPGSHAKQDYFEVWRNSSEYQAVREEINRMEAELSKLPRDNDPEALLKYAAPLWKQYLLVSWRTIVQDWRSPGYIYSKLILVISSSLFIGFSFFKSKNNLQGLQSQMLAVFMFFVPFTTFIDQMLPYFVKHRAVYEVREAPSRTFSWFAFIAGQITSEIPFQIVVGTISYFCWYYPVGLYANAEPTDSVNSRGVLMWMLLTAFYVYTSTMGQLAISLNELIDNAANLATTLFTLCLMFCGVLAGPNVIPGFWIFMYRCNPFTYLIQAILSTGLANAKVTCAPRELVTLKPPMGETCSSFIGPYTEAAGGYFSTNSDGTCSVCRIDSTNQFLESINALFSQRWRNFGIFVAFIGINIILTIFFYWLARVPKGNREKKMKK
Chain of ALK tyrosine kinase receptor (Q9UM73 whole entry): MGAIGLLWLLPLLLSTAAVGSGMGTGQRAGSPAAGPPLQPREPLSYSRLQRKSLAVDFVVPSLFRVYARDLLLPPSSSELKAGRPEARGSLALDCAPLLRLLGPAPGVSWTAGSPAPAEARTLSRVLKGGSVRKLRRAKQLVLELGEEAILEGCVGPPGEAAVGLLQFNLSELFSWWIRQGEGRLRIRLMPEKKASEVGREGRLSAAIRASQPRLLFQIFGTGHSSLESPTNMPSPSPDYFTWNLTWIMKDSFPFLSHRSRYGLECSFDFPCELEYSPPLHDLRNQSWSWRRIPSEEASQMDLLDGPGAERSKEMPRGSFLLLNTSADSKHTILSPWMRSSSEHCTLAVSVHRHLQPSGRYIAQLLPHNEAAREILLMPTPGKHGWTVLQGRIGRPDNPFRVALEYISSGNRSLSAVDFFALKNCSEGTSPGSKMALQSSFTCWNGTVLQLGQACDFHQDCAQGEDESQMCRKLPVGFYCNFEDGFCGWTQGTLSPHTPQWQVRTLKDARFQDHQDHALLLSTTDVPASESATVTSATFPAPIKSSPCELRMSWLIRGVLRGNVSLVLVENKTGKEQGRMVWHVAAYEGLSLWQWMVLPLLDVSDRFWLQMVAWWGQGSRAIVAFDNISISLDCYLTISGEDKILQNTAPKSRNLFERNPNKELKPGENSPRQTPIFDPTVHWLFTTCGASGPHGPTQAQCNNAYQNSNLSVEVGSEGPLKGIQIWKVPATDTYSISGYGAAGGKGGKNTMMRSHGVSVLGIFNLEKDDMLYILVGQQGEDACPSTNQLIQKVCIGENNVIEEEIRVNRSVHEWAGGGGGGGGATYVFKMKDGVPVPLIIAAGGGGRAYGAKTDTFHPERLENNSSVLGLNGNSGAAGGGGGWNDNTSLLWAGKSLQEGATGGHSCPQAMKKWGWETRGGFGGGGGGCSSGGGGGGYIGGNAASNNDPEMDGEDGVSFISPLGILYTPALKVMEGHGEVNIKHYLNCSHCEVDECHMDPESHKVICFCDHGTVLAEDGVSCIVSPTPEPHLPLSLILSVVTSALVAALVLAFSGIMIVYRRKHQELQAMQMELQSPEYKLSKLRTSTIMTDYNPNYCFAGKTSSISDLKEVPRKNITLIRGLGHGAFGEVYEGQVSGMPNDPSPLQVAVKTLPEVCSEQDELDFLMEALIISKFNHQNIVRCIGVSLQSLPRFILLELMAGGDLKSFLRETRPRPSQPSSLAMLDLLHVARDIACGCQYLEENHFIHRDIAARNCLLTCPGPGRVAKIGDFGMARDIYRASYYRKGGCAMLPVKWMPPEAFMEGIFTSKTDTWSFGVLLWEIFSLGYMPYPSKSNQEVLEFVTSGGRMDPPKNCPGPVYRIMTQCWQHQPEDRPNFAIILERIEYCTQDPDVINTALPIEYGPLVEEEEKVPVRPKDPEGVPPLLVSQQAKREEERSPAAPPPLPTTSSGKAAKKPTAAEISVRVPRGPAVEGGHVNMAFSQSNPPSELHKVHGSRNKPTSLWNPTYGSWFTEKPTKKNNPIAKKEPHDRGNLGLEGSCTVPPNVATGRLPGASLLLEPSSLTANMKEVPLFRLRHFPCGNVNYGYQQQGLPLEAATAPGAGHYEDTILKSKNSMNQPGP
Chain of Serine/threonine-protein kinase Nek2 (P51955 whole entry): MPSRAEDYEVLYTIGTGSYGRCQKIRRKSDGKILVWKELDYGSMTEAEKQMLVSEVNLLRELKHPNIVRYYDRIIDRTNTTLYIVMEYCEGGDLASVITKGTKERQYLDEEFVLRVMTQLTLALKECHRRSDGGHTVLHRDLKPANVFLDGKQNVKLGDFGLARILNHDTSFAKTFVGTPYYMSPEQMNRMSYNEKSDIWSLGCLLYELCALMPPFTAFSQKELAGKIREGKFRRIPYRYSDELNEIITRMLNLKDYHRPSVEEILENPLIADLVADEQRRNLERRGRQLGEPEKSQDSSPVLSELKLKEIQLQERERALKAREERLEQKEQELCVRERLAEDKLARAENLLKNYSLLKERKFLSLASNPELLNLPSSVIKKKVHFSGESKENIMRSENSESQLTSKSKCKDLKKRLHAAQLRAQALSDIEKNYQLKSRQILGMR
Chain of Mitogen-activated protein kinase 8 (P45983 whole entry): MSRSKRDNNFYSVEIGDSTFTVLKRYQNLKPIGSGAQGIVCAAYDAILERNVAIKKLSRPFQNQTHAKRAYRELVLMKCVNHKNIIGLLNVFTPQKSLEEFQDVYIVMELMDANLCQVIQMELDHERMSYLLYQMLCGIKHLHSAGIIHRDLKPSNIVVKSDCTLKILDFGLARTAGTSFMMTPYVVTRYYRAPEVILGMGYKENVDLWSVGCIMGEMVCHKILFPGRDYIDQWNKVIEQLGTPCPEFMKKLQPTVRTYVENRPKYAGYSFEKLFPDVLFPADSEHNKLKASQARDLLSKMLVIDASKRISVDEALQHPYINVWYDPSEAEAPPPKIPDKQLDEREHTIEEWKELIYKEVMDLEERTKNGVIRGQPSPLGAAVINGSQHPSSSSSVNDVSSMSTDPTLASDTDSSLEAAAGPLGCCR
Chain of Aurora kinase B (Q96GD4 whole entry): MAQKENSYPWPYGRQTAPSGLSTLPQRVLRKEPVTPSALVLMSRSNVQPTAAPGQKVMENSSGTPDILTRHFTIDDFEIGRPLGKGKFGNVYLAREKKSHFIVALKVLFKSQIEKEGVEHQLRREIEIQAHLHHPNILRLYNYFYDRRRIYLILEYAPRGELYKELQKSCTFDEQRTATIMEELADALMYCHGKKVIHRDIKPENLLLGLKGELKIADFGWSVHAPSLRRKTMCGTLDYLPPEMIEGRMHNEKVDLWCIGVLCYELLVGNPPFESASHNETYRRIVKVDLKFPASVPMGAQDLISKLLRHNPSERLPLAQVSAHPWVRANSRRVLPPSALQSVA
Chain of 5'-AMP-activated protein kinase catalytic subunit alpha-1 (Q13131 whole entry): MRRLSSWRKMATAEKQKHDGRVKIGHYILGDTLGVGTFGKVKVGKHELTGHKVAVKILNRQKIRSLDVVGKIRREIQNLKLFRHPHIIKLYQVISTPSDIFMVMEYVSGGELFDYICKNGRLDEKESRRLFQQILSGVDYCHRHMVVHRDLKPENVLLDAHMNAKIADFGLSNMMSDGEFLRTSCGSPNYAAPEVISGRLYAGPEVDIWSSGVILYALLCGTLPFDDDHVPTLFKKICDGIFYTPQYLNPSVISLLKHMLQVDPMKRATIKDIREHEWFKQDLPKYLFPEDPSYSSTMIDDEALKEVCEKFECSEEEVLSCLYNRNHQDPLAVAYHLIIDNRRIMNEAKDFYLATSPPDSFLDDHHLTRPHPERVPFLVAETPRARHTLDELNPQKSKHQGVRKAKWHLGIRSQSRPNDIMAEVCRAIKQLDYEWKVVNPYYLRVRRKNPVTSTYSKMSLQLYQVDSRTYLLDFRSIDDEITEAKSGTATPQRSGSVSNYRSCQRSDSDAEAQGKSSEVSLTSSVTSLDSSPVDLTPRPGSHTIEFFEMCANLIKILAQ

With `Cc1noc(C)c1S(=O)(=O)Nc1ccc2c(c1)CC(=O)N([C@H](C)CO)C[C@H](C)[C@@H](CN(C)S(=O)(=O)c1ccc(F)cc1)O2` the AC50 [1] was 19500 nM (active).

With `Cn1cc(C(CC(=O)c2ccc(C(C)(C)C)cc2)C(=O)O)c2ccccc21` (configuration not stated) the IC50 [2] was 90500 nM (active).

In the case of `CN(C)CCc1ccc(Nc2nccc(-c3c(-c4cccc(C(O)CO)c4)nc4ccccn34)n2)cc1` (configuration not stated), the Ki [3] is reported as 3160 nM (active) and the Ki [4] is reported as 3160 nM (active).

In the case of `O=C(c1cc(-c2ccccc2)on1)N(C1CCCCC1)C1CCCC1`, the EC50 [5] is reported as > 50000 nM (inactive) and the EC50 [6] is reported as > 50000 nM (inactive).

With `NC1=NC[C@@H](Cc2ccc(O)cc2)N1CCCCC1CCCCC1` the EC50 [7] was 27300 nM (active), the IC50 [8] was > 20000 nM (inactive) and the EC50 [9] was 16300 nM (active).

With `NC(=O)c1ccc2nc(-c3ccc([N+](=O)[O-])o3)cn2c1` the Ki [10] was 631 nM (active), the Ki [11] was 126 nM (active) and the Ki [12] was 63.1 nM (active). The Ki [13] was 2510 nM (active), the Ki [14] was 251 nM (active) and the Ki [15] was 316 nM (active). The Ki [16] was 126 nM (active), the Ki [17] was 126 nM (active) and the Ki [18] was 200 nM (active). For the same molecule, the Ki [19] was 79.4 nM (active), the Ki [20] was 50.1 nM (active) and the Ki [21] was > 2510 nM (inactive). For the same molecule, the Ki [22] was 1260 nM (active), the Ki [23] was 316 nM (active) and the Ki [24] was 100 nM (active). For the same molecule, the Ki [25] was 158 nM (active), the Ki [26] was 39.8 nM (active) and the Ki [27] was 631 nM (active). The Ki [28] was 126 nM (active), the Ki [29] was 2000 nM (active) and the Ki [3] was 631 nM (active). For the same molecule, the Ki [30] was 1000 nM (active), the Ki [31] was 1000 nM (active) and the Ki [32] was 251 nM (active). The Ki [33] was 158 nM (active), the Ki [34] was 31.6 nM (active) and the Ki [35] was 158 nM (active). The Ki [36] was > 3980 nM (inactive), the Ki [37] was 126 nM (active) and the Ki [38] was 20 nM (active). For the same molecule, the Ki [39] was 79.4 nM (active), the Ki [40] was 251 nM (active) and the Ki [41] was 1260 nM (active). For the same molecule, the Ki [42] was 631 nM (active), the Ki [43] was > 6310 nM (inactive) and the Ki [44] was 1000 nM (active). The Ki [45] was > 2510 nM (inactive), the Ki [46] was 251 nM (active) and the Ki [47] was 1580 nM (active). For the same molecule, the Ki [48] was 1000 nM (active), the Ki [49] was 1260 nM (active) and the Ki [50] was 1580 nM (active). For the same molecule, the Ki [51] was 631 nM (active), the Ki [52] was 126 nM (active) and the Ki [53] was 251 nM (active). For the same molecule, the Ki [54] was 794 nM (active), the Ki [55] was 794 nM (active) and the Ki [56] was 50.1 nM (active).
